Laboratory results reported in patent publication US20250011288A1 (BRISTOL-MYERS SQUIBB COMPANY, priority 2021, published 2025).

These compounds were tested against T1, human RXFP1 (Homo sapiens, UniProt Q9HBX9) (assay: human RXFP1 (hRXFP1) HEK293 cAMP assay (HTRF)). Settings: HEK293 cells stably expressing human RXFP1, 30 min at room temperature.
T1 construct: expressed in transfected cells
T1 sequence (Q9HBX9 1-757): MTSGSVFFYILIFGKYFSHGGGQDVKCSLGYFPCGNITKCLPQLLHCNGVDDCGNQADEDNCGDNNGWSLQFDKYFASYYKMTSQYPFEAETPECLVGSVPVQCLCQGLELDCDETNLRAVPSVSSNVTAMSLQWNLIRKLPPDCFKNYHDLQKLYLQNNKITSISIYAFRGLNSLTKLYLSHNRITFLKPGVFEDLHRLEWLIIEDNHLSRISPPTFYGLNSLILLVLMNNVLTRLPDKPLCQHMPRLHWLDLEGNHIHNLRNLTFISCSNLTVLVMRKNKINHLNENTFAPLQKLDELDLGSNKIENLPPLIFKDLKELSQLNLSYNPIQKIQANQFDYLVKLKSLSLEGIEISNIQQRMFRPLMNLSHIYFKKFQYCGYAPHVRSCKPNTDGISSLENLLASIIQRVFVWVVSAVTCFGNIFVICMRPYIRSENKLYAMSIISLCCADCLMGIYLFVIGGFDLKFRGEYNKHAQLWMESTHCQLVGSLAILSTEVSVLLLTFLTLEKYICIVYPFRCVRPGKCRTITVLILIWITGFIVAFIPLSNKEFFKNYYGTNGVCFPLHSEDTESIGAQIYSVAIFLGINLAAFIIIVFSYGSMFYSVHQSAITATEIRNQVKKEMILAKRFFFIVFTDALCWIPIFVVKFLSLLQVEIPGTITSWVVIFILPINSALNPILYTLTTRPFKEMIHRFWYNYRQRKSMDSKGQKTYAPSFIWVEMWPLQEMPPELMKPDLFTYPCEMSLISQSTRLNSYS
Assay type: cell-based
Summary of the method: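 Intracellular cAMP was quantified by HTRF after a 30 min room-temperature exposure of hRXFP1-HEK293 cells (1500/well) to compound at 0.010 nM–50 µM final, 2% DMSO. Buffer was HBSS with 20 mM HEPES, 0.05% BSA and 0.5 mM IBMX; values came from a 4-parameter logistic fit.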

**Q.** How did the EC50 turn out when `COc1ncc(C2=NOC3CC(C(OC(=O)Nc4ccccc4)C4CC4)CC23)cc1C(=O)N[C@@H]1C2CCC(/C2=C/C2CC(F)(F)C2)[C@@H]1C(=O)Nc1ccc(F)c(C(F)(F)F)c1` (stereo partly drawn) [Example 160, cyclopropyl[3-(5-{[(2R,3S,7Z)-7-1(3,3-difluorocyclobutyl)methylidene]-3-{[4-fluoro-3-(trifluoromethyl)phenyl]carbamoyl}bicyclo[2.2.1]heptan-2-yl]carbamoyl}-6-methoxypyridin-3-yl)-3aH,4H,5H,6H, 6aH-cyclopenta[d][1,2] oxazol-5-yl]methyl N-phenylcarbamate] was run?
**A.** 8.4 nM

**Q.** `COc1ncc(C2=NOC3CC(C(OC(=O)NC4CCC4)C4CC4)CC23)cc1C(=O)N[C@@H]1C2CCC(/C2=C/C2CC(F)(F)C2)[C@@H]1C(=O)Nc1ccc(F)c(C(F)(F)F)c1` (stereo partly drawn) [Example 161, cyclopropyl[3-(5-{[(2R,3S,7Z)-7-[(3,3-difluorocyclobutyl)methylidene]-3-{[4-fluoro-3-(trifluoromethyl)phenyl]carbamoyl}bicyclo[2.2.1]heptan-2-yl]carbamoyl}-6-methoxypyridin-3-yl)-3aH,4H,5H,6H, 6aH-cyclopenta[d][1,2]oxazol-5-yl]methyl N-cyclobutylcar-bamate] was tested. Which EC50 did it give?
**A.** 9 nM

**Q.** For `COc1ncc(C2=NOC3CC(C(OC(=O)Nc4ccccc4)C4CC4)CC23)cc1C(=O)N[C@@H]1C2CCC(/C2=C/C2CCCC2)[C@@H]1C(=O)Nc1ccc(F)c(C(F)(F)F)c1` (stereo partly drawn) [Example 162, [3-(5-{[(2R,3S,7Z)-7-(cyclopentyl-methylidene)-3-{[4-fluoro-3-(trifluoromethyl)phenyl]carbamoyl}bicyclo[2.2.1]heptan-2-yl]carbamoyl}-6-methoxypyridin-3-yl)-3aH,4H,5H,6H, 6aH-cyclopenta[d][1,2]oxazol-5-yl](cyclopropyl) methyl N-phenylcarbamate], which EC50 is on record?
**A.** 4.6 nM

**Q.** `COc1ncc(-c2cc([C@H](O)C(F)(F)F)ccc2F)cc1C(=O)N[C@H]1[C@@H](C(=O)Nc2ccc(F)c(C(F)(F)F)c2)[C@H]2CC[C@@H]1/C2=C\C1CCCC1` [Example 163, N-[(1R,2R,3S,4R, 7Z)-7-(cyclopentyl-methylidene)-3-{[4-fluoro-3-(trifluoromethyl)phenyl]carbamoyl}bicyclo[2.2.1]heptan-2-yl]-5-{2-fluoro-5-[(1S)-2,2,2-trifluoro-1-hydroxyethyl]phenyl}-2-methoxypyridine-3-carboxamide] was tested. Which EC50 did it give?
**A.** 1 nM

**Q.** How did the EC50 turn out when `COc1ncc(-c2cc([C@H](OC(=O)NC3CC3)C(F)(F)F)ccc2F)cc1C(=O)N[C@@H]1C2CCC(/C2=C/C2CCCC2)[C@@H]1C(=O)Nc1ccc(F)c(C(F)(F)F)c1` (stereo partly drawn) [Example 164, (1S)-1-[3-(5-{[(1R,2R,3S,4R, 7Z)-7-(cyclopentyl-methylidene)-3-{[4-fluoro-3-(trifluoromethyl)phenyl]carbamoyl}bicyclo[2.2.1]heptan-2-yl]carbamoyl}-6-methoxypyridin-3-yl)-4-fluorophenyl]-2,2,2-trifluoroethyl N-cyclopropylcar-bamate] was run?
**A.** 1.4 nM

**Q.** For `COc1ncc(-c2cc([C@H](OC(=O)NC3CC3)C(F)(F)F)ccc2F)cc1C(=O)N[C@H]1[C@@H](C(=O)Nc2ccc(F)c(C(F)(F)F)c2)[C@H]2CC[C@@H]1/C2=C\CCC(F)(F)F` [Example 165, (1S)-2,2,2-trifluoro-1-[4-fluoro-3-(5-{[(1R,2R,3S,4R, 7Z)-3-{[4-fluoro-3-(trifluoromethyl)phenyl]carbamoyl}-7-(4,4,4-trifluorobutylidene)bicyclo[2.2.1]heptan-2-yl]carbamoyl}-6-methoxypyridin-3-yl)phenyl]ethyl N-cyclopropyl-carbamate], which EC50 is on record?
**A.** 1.2 nM

**Q.** How did the EC50 turn out when `COc1ncc(-c2cc([C@H](OC(=O)NC3CC3)C(F)(F)F)ccc2F)cc1C(=O)N[C@H]1[C@@H](C(=O)Nc2ccc(F)c(C(F)(F)F)c2)[C@H]2CC[C@@H]1/C2=C\C(C)C` [Example 166, (1S)-2,2,2-trifluoro-1-[4-fluoro-3-(5-{[(1R,2R,3S,4R, 7Z)-3-{[4-fluoro-3-(trifluoromethyl)phenyl]carbamoyl}-7-(2-methylpropylidene)bicyclo[2.2.1]heptan-2-yl]carbamoyl}-6-methoxypyridin-3-yl)phenyl]ethyl N-cyclopropyl-carbamate] was run?
**A.** 2.5 nM

**Q.** With `COc1ncc(-c2cc([C@H](OC(=O)NC3CC3)C(F)(F)F)ccc2F)cc1C(=O)N[C@H]1[C@@H](C(=O)Nc2ccc(F)c(C(F)(F)F)c2)[C@H]2CC[C@@H]1/C2=C\C1CC(F)(F)C1` [Example 167, (1S)-1-[3-(5-{[(1R,2R,3S,4R, 7Z)-7-[(3,3-difluorocyclobutyl)methylidene]-3-{[4-fluoro-3-(trifluoromethyl)phenyl]carbamoyl}bicyclo[2.2.1]heptan-2-yl]carbamoyl}-6-methoxypyridin-3-yl)-4-fluorophenyl]-2,2,2-trifluoroethyl N-cyclopropyl-carbamate] as the compound, how does the EC50 read?
**A.** 1.7 nM

**Q.** Which EC50 does the source give for `COc1ncc(-c2cc([C@H](OC(=O)NC3CCC3)C(F)(F)F)ccc2F)cc1C(=O)N[C@@H]1C2CCC(/C2=C/CCC(F)(F)F)[C@@H]1C(=O)Nc1ccc(F)c(C(F)(F)F)c1` (stereo partly drawn) [Example 168, (1S)-2,2,2-trifluoro-1-[4-fluoro-3-(5-{[(2R,3S,7Z)-3-{[4-fluoro-3-(trifluoromethyl)phenyl]carbamoyl}-7-(4,4,4-trifluorobutylidene)bicyclo[2.2.1]heptan-2-yl]carbamoyl}-6-methoxypyridin-3-yl)phenyl]ethyl N-cyclobutyl-carbamate] here?
**A.** 5.3 nM

**Q.** For `COc1ncc(-c2cc([C@H](OC(=O)NC3CCC3)C(F)(F)F)ccc2F)cc1C(=O)N[C@@H]1C2CCC(/C2=C/C2CC(F)(F)C2)[C@@H]1C(=O)Nc1ccc(F)c(C(F)(F)F)c1` (stereo partly drawn) [Example 169, (1S)-1-[3-(5-{[(2R,3S,7Z)-7-[(3,3-difluorocyclobutyl)methylidene]-3-{[4-fluoro-3-(trifluoromethyl)phenyl]carbamoyl}bicyclo[2.2.1]heptan-2-yl]carbamoyl}-6-methoxypyridin-3-yl)-4-fluorophenyl]-2,2,2-trifluoroethyl N-cyclobutyl-carbamate], which EC50 is on record?
**A.** 7.9 nM

**Q.** For `COc1ncc(C2=NOC3CC(C(O)C(F)(F)F)CC23)cc1C(=O)N[C@H]1[C@@H](C(=O)N[C@H](C)C2(C)CC2)[C@H]2CC[C@@H]1/C2=C\C1CC(F)(F)C1` (stereo partly drawn) [Example 170, N-[(1R,2R,3S,4R, 7Z)-7-[(3,3-difluorocyclobutyl)methylidene]-3-{[(1R)-1-(1-methylcyclo-propyl)ethyl]carbamoyl}bicyclo[2.2.1]heptan-2-yl]-2-methoxy-5-[5-(2,2,2-trifluoro-1-hydroxyethyl)-3aH,4H,5H,6H, 6aH-cyclopenta[d] [1,2]oxazol-3-yl]pyridine-3-carboxamide], which EC50 is on record?
**A.** 3.3 nM

**Q.** How did the EC50 turn out when `COc1ncc(C2=NOC3CC(C(OC(=O)NC4CCC4)C(F)(F)F)CC23)cc1C(=O)N[C@@H]1C2CCC(/C2=C/C2CC2)[C@@H]1C(=O)Nc1ccc(F)c(C(F)(F)F)c1` (stereo partly drawn) [Example 171, 1-[3-(5-{[(2R,3S,7Z)-7-(cyclopropyl-methylidene)-3-{[4-fluoro-3-(trifluoromethyl)phenyl]carbamoyl}bicyclo[2.2.1]heptan-2-yl]carbamoyl}-6-methoxypyridin-3-yl)-3aH,4H,5H,6H, 6aH-cyclopenta[d][1,2]oxazol-5-yl]-2,2,2-trifluoroethyl N-cyclobutyl-carbamate] was run?
**A.** 7.9 nM

**Q.** For `COc1ncc(C2=NOC3CC(CO)CC23)cc1C(=O)N[C@H]1[C@@H](C(=O)Nc2ccc(F)c(C(F)(F)F)c2)[C@H]2CC[C@@H]1/C2=C\C1CCCC1` (stereo partly drawn) [Example 172, N-[(1R,2R,3S,4R, 7Z)-7-(cyclopentyl-methylidene)-3-{[4-fluoro-3-(trifluoromethyl)phenyl]carbamoyl}bicyclo[2.2.1]heptan-2-yl]-5-[5-(hydroxymethyl) 3aH,4H,5H,6H, 6aH-cyclopenta[d][1,2]oxazol-3-yl]-2-methoxypyridine-3-carboxamide], which EC50 is on record?
**A.** 4.3 nM

**Q.** With `COc1ncc(C2=NOC3CC(C(O)C(F)(F)F)CC23)cc1C(=O)N[C@H]1[C@@H](C(=O)Nc2ccc(F)c(C(F)(F)F)c2)[C@H]2CC[C@@H]1/C2=C\C1CCCC1` (stereo partly drawn) [Example 173, N-[(1R,2R,3S,4R, 7Z)-7-(cyclopentyl-methylidene)-3-{[4-fluoro-3-(trifluoromethyl)phenyl]carbamoyl}bicyclo[2.2.1]heptan-2-yl]-2-methoxy-5-[5-(2,2,2-trifluoro-1-hydroxyethyl)-3aH,4H,5H,6H, 6aH-cyclopenta[d][1,2]oxazol-3-yl]pyridine-3-carboxamide] as the compound, how does the EC50 read?
**A.** 0.6 nM

**Q.** With `COc1ncc(C2=NOC3CC(C(OC(=O)Nc4ccccc4)C(F)(F)F)CC23)cc1C(=O)N[C@H]1[C@@H](C(=O)Nc2ccc(F)c(C(F)(F)F)c2)[C@H]2CC[C@@H]1/C2=C\C1CCCC1` (stereo partly drawn) [Example 174, 1-[3-(5-{[(1R,2R,3S,4R, 7Z)-7-(cyclopentyl-methylidene)-3-{[4-fluoro-3-(trifluoromethyl)phenyl]carbamoyl}bicyclo[2.2.1]heptan-2-yl]carbamoyl}-6-methoxypyridin-3-yl)-3aH,4H,5H,6H, 6aH-cyclopenta[d][1,2]oxazol-5-yl]-2,2,2-trifluoroethyl N-phenylcarbamate] as the compound, how does the EC50 read?
**A.** 1.9 nM
